“Also recorded” adds a separate entry of the source.
Columns and labels:
[1] = molecular target: T1, NFAT1/DNA complex (Homo sapiens, UniProt Q13469); assay: Identification of covalent attachment site on crosslinked NFAT1 (trypsin digestion, Edman sequencing); details: for peptide identified by Edman sequencing of the DNA-peptide conjugate: trypsin digested crosslinked NFAT1/DNA complex
T1 construct: human NFAT1 protein (residue 399-676, NFAT1-DBD)
T1 sequence (Q13469 399-676): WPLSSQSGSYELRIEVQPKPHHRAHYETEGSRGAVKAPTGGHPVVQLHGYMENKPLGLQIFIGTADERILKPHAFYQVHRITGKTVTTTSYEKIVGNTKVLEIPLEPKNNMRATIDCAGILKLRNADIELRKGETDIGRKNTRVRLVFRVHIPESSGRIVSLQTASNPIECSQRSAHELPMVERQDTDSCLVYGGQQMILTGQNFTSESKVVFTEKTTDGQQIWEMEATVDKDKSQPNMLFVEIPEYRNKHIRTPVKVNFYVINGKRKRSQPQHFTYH
Procedure: FIG. 9A-FIG. 9D depicts characterization of BFPX-mediated crosslinking reaction, to identify the covalent attachment site on the protein. (FIG. 9A) A large scale of crosslinking reaction corresponding to lane 11 of FIG. 7 was carried out. The reaction mixture was separated on FPLC using a mono-Q column (yellow trace: conductance, red trace: salt gradient (A:10 mM Hepes pH 7.4; B: 10 mM Hepes 7.4, IM NaCl), blue trace: UV254 nm absorbance). […] The flow-through contains only free NFAT (lane 4), peak I contains predominantly the complex (lane 5) and peak II contains predominantly free DNA (lane 6). (FIG. 9C) The purified NFAT/DNA complex was digested with trypsin and the DNA-peptide conjugate was purified and sequenced by Edman degradation: Top panel, a schematic picture of the DNA binding domain of human NFAT1 (residue 399-676) used in the study, the sequence of loop 478-491, RITGKTVTTTSYEK (SEQ ID NO.: 1), is shown above; Middle panel: a schematic picture of the covalently capture NFAT/DNA complex, the DNA sequence (5′-[…]-3′ (SEQ ID NO: 2) and its complementary strand 3′-[…]-5′ (SEQ ID NO: 3)) used in the study is shown with the two potential probe (yellow wedge and start) binding site (TpA) indicated). The underlined region is the NFAT binding motif. Bottom panel: Edman sequencing results ([…], T480, and G481) identify the loop of 478-491, RITGKTVTTTSYEK (SEQ ID NO: 1), as the attachment site. […]
FIG. 13A depicts characterization of the BFPX-mediated crosslinking reaction: Identification of covalent attachment sites on the crosslinked proteins. […] The reaction mixtures were separated on FPLC using a mono-Q column (yellow trace: conductance, red trace: salt gradient (buffer A:10 mM Hepes pH 7.4; buffer B: 10 mM Hepes 7.4, 1 M NaCl), blue trace: UV254 nm absorbance). […]
We analyzed the covalent attachment sites on the NFAT/DNA complexes crosslinked by SPB-AAD and SPB-PEG4-AAD using a work flow shown in FIG. 13A. […] The sequencing results were generally noisy with multiple amino acids detected in each cycle. […]

[2] = system: MEF2A/DNA complexes in GM12878 cells; assay: Capture of MEF2A/DNA complexes in GM12878 nuclei, western blot; format: cell-based; details: probe 10 μM + UV365 10 min
Procedure: FIG. 10A depicts Western blot analysis of presence of complexing of MEF2A with DNA in GM12878 cells treated with UV365 and SPB-PEG3-AAD. For each lane, one million of GM12878 cells were used. The nuclei of the cells were extracted and resuspended in 500 μl PBS, treated with various combination of SPB-PEG3-AAD (10 μM) and/or UV365 (10 min, 30 W, LED, sample distance 3 cm, cooling at 4-degree C.). The samples were then sonicated using covaries (1 min) followed by limited MNase digestion (10 min, 37-degree C.). The lysed and partially digested samples were then mixed with SDS loading dye (2% SDS, boil for 10 min) and run on SDS gel for western blot analyses of MEF2A using Anti-MEF2 antibody (B-4) (SCBT, cat #sc-17785).
We tested the capture of MEF2A/DNA complexes in the GM12878 cell line, a Tier 1 ENCODE cell line with rich genomics data.

Row | Structure (SMILES) | peptide identified by Edman sequencing of the DNA-peptide conjugate [1] | covalent attachment site on NFAT1 ([1]; human NFAT1 DBD residue 399-676) | capture of MEF2A complexes [2]
1 | C#CCCC1(CCNC(=O)CCCOc2c3occc3cc3ccc(=O)oc23)N=N1 [SPB-AAD, N-(2-(3-(but-3-yn-1-yl)-3H-diazirin-3-yl)ethyl)-4-((7-oxo-7H-furo[3,2-g]chromen-9-yl)oxy)butanamide] | IVGN and Ile, Thr, and Gly |  | 
2 | C#CCCC1(CCNC(=O)CCOCCOCCOCCOCCNC(=O)CCCOc2c3occc3cc3ccc(=O)oc23)N=N1 [SPB-PEG4-AAD, N-(2-(3-(but-3-yn-1-yl)-3H-diazirin-3-yl)ethyl)-1-(4-((7-oxo-7H-furo[3,2-g]chromen-9-yl)oxy)butanamido)-3,6,9,12-tetraoxapentadecan-15-amide] | APTGGH | residues 434 and 452; also recorded: loop of 434-452 | 
3 | C#CCCC1(CCNC(=O)CCOCCOCCOCCC(=O)NCCNC(=O)CCCOc2c3occc3cc3ccc(=O)oc23)N=N1 [SPB-PEG3-AAD] |  |  | could capture MEF2 complexes in the nucleus
